Laboratory results reported in US9474759B2 (priority 2011, dated 2016).
Read-outs that look alike come from different tables or passages of the source.

How the values were obtained:
FIPV-1146 = FIPV-1146 replication in CRFK cells, TCID50 method; type: cell-based, feline coronavirus; conditions: Alphacoronavirus 1, MOI 0.05, mean ± SEM
Procedure: (§1) Crandell Rees feline kidney (CRFK) cells were maintained in minimal essential medium containing 2-5% fetal bovine serum and antibiotics (chlortetracycline [25 μg/ml], penicillin [250 U/ml], and streptomycin [250 μg/ml]). FIPV WSU 79-1146 and FECV WSU 79-1683 strains are the prototypes of serotype II FIPV or FECV, respectively, and were purchased from ATCC (Manassas, Va.).
(§2) The cells were further incubated in the presence of each compound for 1 hr at 37° C. Then […] or FECV-1683 was inoculated to the cells at a multiplicity of infection (MOI) of 0.05 or 5.
(§3) b. TCID50 Method. A standard TCID50 method with the 10-fold dilution of each sample was used for virus titration.

FIPV = assay: Cell-based screening, FIPV in CRFK cells (Example 2); set-up: species or system feline infectious peritonitis virus; conditions: Alphacoronavirus 1; CRFK cells; read-out: Inhibition [ED50 (μM)] against various viruses: Coronavirus, FIPV
Procedure: (§4) 3. Cell-based screening of inhibitor. The effects of each inhibitor on the viral replication were examined. The list of viruses and corresponding cell lines are listed above in Table 2. Briefly, confluent cells were inoculated with virus at a MOI of 5 or 0.05 for 1 hr, and medium was replaced with medium containing mock-medium or each compound (up to 100 μM). The virus infected cells were further incubated for up to 96 hrs, and the replication of virus was measured by TCID50 assay with the 10-fold dilution of each sample used for virus titration (Reed and Muench, 1938). In some viruses, the virus protein and genome expression levels were detected by Western blot analysis and real-time qRT-PCR, respectively, as described below. The IC50s of the compounds were calculated.

[1] = molecular target: PV 3Cpro (codon-optimized, N-terminal 6 His, recombinant) (Poliovirus type 1, UniProt P03300); assay: biochemical; set-up: species or system poliovirus (poliomyelitis virus)
Sequence of PV 3Cpro (codon-optimized, N-terminal 6 His, recombinant) (P03300 1566-1748 limits assumed): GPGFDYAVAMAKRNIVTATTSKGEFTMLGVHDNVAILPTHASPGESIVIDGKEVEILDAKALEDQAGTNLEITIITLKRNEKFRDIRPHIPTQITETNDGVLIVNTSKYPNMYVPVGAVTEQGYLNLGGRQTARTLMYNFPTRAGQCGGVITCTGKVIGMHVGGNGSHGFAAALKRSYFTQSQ

[2] = molecular target: MD145 3CLpro (codon-optimized, full-length, N-terminal 6 His, recombinant) (Lordsdale virus, UniProt P54634); assay: biochemical; set-up: species or system norovirus strain MD145 (human norovirus GII)
Sequence of MD145 3CLpro (codon-optimized, full-length, N-terminal 6 His, recombinant) (P54634 1009-1189): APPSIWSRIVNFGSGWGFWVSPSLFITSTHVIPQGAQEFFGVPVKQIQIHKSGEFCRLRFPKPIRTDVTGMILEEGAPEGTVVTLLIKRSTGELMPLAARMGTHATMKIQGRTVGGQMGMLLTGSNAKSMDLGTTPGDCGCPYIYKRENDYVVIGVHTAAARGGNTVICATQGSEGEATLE

229E = assay: Cell-based screening, 229E in MRC-5 cells (Example 2); conditions: Human coronavirus 229E, MRC5; MRC-5 cells; read-out: Inhibition [ED50 (μM)] against various viruses: Coronavirus, 229E
Procedure: as §4

MNV-1 [3] = assay: Cell-based screening, MNV-1 in RAW267.4 cells (Example 2); set-up: species or system murine norovirus; conditions: Norwalk virus; RAW267.4 cells; read-out: Inhibition [ED50 (μM)] against various viruses: Calicivirus, MNV-1
Procedure: as §4

FCV [4] = assay: Cell-based screening, FCV in CRFK cells (Example 2); conditions: Feline calicivirus; CRFK cells; read-out: Inhibition [ED50 (μM)] against various viruses: Calicivirus, FCV
Procedure: as §4

MNV-1 [5] = assay: microbe, parasite or virus in culture; conditions: Norwalk virus, read-out: Initial IC50 values against MNV-1
HAV = assay: Cell-based screening, HAV (Example 2); set-up: species or system hepatitis A virus; conditions: Picornaviridae; read-out: Inhibition [ED50 (μM)] against various viruses: Picornavirus, HAV
Procedure: as §4

Teschovirus = assay: organism not typed; type: cell-based, porcine teschovirus; conditions: read-out: Inhibition [ED50 (μM)] against various viruses: Picornavirus, Teschovirus
[6] = molecular target: MNV-1 3CLpro (codon-optimized, full-length, recombinant) (Norovirus, UniProt Q80J95); assay: biochemical; set-up: species or system murine norovirus-1 (GV)
Sequence of MNV-1 3CLpro (codon-optimized, full-length, recombinant) (Q80J95 995-1177): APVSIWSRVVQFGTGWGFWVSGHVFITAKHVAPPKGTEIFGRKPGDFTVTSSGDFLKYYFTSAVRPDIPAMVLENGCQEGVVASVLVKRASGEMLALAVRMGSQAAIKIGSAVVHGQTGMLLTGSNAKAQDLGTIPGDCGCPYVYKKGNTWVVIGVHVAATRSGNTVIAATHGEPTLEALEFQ

FECV-1683 = FECV-1683 replication in CRFK cells, TCID50 method; type: cell-based, feline coronavirus; conditions: Alphacoronavirus 1, MOI 0.05, mean ± SEM
Procedure: as §1, §2, §3

[7] = molecular target: recombinant 3C or 3CL of MD145 (Norovirus Hu/GII.4/MD145-12/1987/US (Maryland virus), UniProt Q8V0P3); assay: FRET protease assay, MD145 3CL (Example 2); type: biochemical, norovirus strain MD145
Sequence of recombinant 3C or 3CL of MD145 (Q8V0P3 entry or part of it): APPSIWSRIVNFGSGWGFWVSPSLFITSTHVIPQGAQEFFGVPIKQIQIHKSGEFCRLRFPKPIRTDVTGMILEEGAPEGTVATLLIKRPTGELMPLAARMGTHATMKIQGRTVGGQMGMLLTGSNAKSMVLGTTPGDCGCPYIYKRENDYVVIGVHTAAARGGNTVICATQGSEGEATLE

FCV [8] = assay: Cell culture system, FCV replication in CRFK cells (Example 3); type: cell-based, feline calicivirus; conditions: Feline calicivirus; cell-based assay, CRFK cells; read-out: IC50 against FCV replication
[9] = molecular target: NV 3CLpro (codon-optimized, full-length, N-terminal 6 His, recombinant) (Norovirus, UniProt Q83883); assay: biochemical; set-up: species or system norovirus strain Norwalk
Sequence of NV 3CLpro (codon-optimized, full-length, N-terminal 6 His, recombinant) (Q83883 1101-1281): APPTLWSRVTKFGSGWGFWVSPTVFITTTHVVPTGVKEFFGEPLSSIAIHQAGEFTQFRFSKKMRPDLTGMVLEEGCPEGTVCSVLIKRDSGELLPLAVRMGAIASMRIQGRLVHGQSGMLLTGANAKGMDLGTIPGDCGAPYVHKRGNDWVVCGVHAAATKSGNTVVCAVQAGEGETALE

[10] = tested on: Norwalk virus (HG23 cells); assay: microbe, parasite or virus in culture; type: cell-based; conditions: HG23, read-out: Inhibition [ED50 (μM)] against various viruses: Calicivirus, HG23 cells
[11] = molecular target: FMDV 3Cpro (codon-optimized, N-terminal 6 His, recombinant) (Foot-and-mouth disease virus serotype O, UniProt P03305); assay: biochemical
Sequence of FMDV 3Cpro (codon-optimized, N-terminal 6 His, recombinant) (P03305 1650-1862 limits assumed): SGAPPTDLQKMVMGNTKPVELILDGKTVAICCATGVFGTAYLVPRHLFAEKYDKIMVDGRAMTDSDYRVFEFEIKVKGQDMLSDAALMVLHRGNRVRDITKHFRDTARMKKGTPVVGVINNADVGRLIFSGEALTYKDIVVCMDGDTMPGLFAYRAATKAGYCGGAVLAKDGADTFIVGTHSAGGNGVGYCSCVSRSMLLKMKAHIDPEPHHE

EV71 = assay: Cell-based screening, EV71 in Vero cells (Example 2); set-up: species or system enterovirus 71; conditions: Enterovirus A, EV71; Vero cells; read-out: Inhibition [ED50 (μM)] against various viruses: Picornavirus, EV71
Procedure: as §4

TGEV = assay: Cell-based screening, TGEV in ST cells (Example 2); set-up: species or system transmissible gastroenteritis virus; conditions: Alphacoronavirus 1; ST cells; read-out: Inhibition [ED50 (μM)] against various viruses: Coronavirus, TGEV
Procedure: as §4

TGEV 3CL protease = TGEV 3CL protease (Porcine transmissible gastroenteritis coronavirus, UniProt P0C6Y5); assay: FRET-based protease assay, TGEV 3CL protease (Example 5); type: biochemical, TGEV Miller strain; conditions: TGEV 3CL protease; read-out: IC50 against 3CL protease in the FRET assay
Sequence of TGEV 3CL protease (P0C6Y5 2879-3180): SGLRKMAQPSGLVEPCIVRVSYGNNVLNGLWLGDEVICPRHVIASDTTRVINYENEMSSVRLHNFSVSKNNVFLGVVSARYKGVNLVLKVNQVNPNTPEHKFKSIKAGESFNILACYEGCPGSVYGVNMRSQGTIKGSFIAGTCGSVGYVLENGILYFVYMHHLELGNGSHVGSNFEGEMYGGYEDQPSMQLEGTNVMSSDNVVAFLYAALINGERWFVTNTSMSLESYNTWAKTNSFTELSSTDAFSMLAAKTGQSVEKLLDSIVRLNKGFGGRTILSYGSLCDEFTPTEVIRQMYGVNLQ
Source text: The 3CL proteases are highly conserved among all coronaviruses, and feline coronavirus 3CL protease is closely related TGEV 3CL protease. Therefore we cloned and expressed the TGEV 3CL protease for the FRET assay. The cDNA encoding the full length of 3CL protease of TGEV Miller strain was amplified with RT-PCR as previously described. The primers contained the nucleotide sequence of the 3CL protease for cloning as well as the nucleotides for 6 Histidine in the forward primer. The amplified product was subcloned to pET-28a(+) vector (GenScript, Piscataway, N.J.). The expression and purification of the 3CL protease was performed with a standard method described previously by our lab (Chang et al., 2012b; Takahashi et al., 2012; Tiew et al., 2011).
Our protease inhibitor compounds and commercial cathepsin inhibitors CA074-Me and E64d were prepared in DMSO as stock solutions (10 mM), and further diluted in assay buffer consisting of 20 mM HEPES, 0.4 mM EDTA, 30% glycerol, 120 mM NaCl, and 4 mM DTT at pH 6. […] TGEV 3CL protease at a final concentration of 0.1˜0.2 μM and the substrate (Dabcyl-[…]-Edans; SEQ ID NO:2) at 10 μM were used for the studies. The substrate was purchased from Bachem Americas, Inc (Torrance, Calif.). Compounds at various concentrations (0˜50 μM) were pre-incubated with TGEV 3CL protease in 25 μl for 30 min at 37° C., and the same volume of substrate was added to a 96-well black plate. The mixtures were then incubated at 37° C. for 60 min, and fluorescence readings were obtained on a microplate reader at 360 nm excitation and 480 nm emission wavelengths. The relative fluorescence units (RFU) were calculated by subtracting background (substrate control well without protease) from the fluorescence readings. The dose-dependent FRET inhibition curves were fitted with variable slope (four parameters) using GraphPad Prism software (La Jolla, Calif.) in order to determine the compound concentration that gives a half-maximum response (IC50).

Structure (SMILES): CC(C)C[C@H](NC(=O)OCc1ccccc1)C(=O)N[C@@H](CC1CCNC1=O)C(O)S(=O)(=O)O (stereo partly shown) [GC376]
- EC50 (FIPV-1146; 24 hr post infection, read-out: Inhibition [ED50 (μM)] against FIPV-1146, 24 hrs): 0.15 ± 0.05 µM
- EC50 (FIPV-1146; 48 hr post infection, read-out: Inhibition [ED50 (μM)] against FIPV-1146, 48 hrs): 0.3 ± 0.1 µM
- EC50 (FIPV): 0.2 µM
- IC50 [1]: 1770 ± 310 nM
- IC50 [2]: 960 nM
- EC50 (229E): 0.3 µM
- EC50 (MNV-1 [3]): 5.3 µM
- EC50 (FCV [4]): 35 µM
- IC50 (MNV-1 [5]): 6200 to 7100 nM
- EC50 (HAV): 50 µM
- EC50 (Teschovirus): 0.15 µM
- IC50 [6]: 1120 nM
- EC50 (FECV-1683; 24 hr post infection, read-out: Inhibition [ED50 (μM)] against FECV-1683, 24 hrs): 0.17 ± 0.11 µM
- EC50 (FECV-1683; 48 hr post infection, read-out: Inhibition [ED50 (μM)] against FECV-1683, 48 hrs): 0.28 ± 0.1 µM
- IC50 [7]: 9.8 µM
- IC50 (FCV [8]): 35000 nM
- IC50 [9]: 490 ± 50 nM
- EC50 [10]: 1.8 µM
- IC50 [11]: 1160 ± 750 nM
- EC50 (EV71): 10 µM
- EC50 (TGEV): 0.15 µM
- IC50 (TGEV 3CL protease): 820 nM
